Laboratory results taken from US11021441B2, “High solubility thioether quinones” (Wisconsin Alumni Research Foundation, priority 2017, dated 2021).

Assay: Redox couple / cyclic voltammetry in aqueous 1 M H2SO4
Type: physicochemical
Description: More preferably, a solution of mercaptoethanesulfonate is allowed to react with a suspension of benzoquinone in water (Scheme 16). 0.655 g of sodium mercaptoethanesulfonate in 10 ml of water with 60 microliters of acetic acid was treated with 0.438 g of benzoquinone and allowed to stir at room temperature for 45 minutes. The resulting mixture was filtered and the filtrate was extracted with three 5 ml portions of ethyl acetate. The aqueous phase was then diluted with 30 ml of ethanol and heated to clarify it. On cooling, crystals formed that gave ^1H and ^13C NMR spectra in D2O in accord with tetra-thioethylsulfonato hydroquinone, 52 (FIGS. 5A and 5B).
To 3.956 g of sodium 3-mercaptopropanesulfonate dispersed in 50 mL of nitrogen-purged N-methyl pyrrolidinone were added 10.5 mL of 2 M aqueous NaOH. Once mixed, 2.766 g of 1,8-dichloroanthraquinone were added (Scheme 28). The suspension was heated under nitrogen to 90° C. for six days then allowed to cool. 50 mL of water containing 1 mL of acetic acid was added to the cooled solution, which was further diluted with 25 mL water. The solution was extracted with four 50 mL portions of methylene chloride, and the aqueous phase was evaporated. The residue was dissolved with 35 mL of water and 60 mL of methanol was added. The mixture was heated until clear, and left to slowly cool. […]

Structure (SMILES) | reversible redox couple (aqueous 1 M H2SO4) [V vs. NHE] | reduction potential (cyclic voltammetry in 1 M H2SO4)
O=S(=O)([O-])CCSc1c(O)c(SCCS(=O)(=O)[O-])c(SCCS(=O)(=O)[O-])c(O)c1SCCS(=O)(=O)[O-].[Na+].[Na+].[Na+].[Na+] [Compound 52, 2,3,5,6-tetrakis(ethylsulfanyl-2′-sulfonate)-1,4-hydroquinone tetrasodium salt] | 0.63 | –
O=C1c2cccc(SCCCS(=O)(=O)[O-])c2C(=O)c2c(SCCCS(=O)(=O)[O-])cccc21.[Na+].[Na+] [Compound 109] | – | approximately 85 mV vs. NHE
